Activity calls are given as the source filed them.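 Rule for the calls: active = mean IC50 for reducing PEG3 promoter reporter signal at or below a set limit, with IC50 above the limit in both counter screens; inactive = the rest, including counter screen hits.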

The test system of one test is GAPDH. In words: inhibition of PEG-3 promoter-driven reporter – cell-based, HeLa, luciferase, CREF/GAPDH counter-screen panel, dose response (AID 624167). As to conditions: CREF/GAPDH counter-screens.
The subject of the next test is Rat fibroblasts (CREF). The test is described as above. As to conditions: CREF/GAPDH counter-screens.
The subject of test [1] is PEG-3. The test is described as above. As to conditions: HeLa PEG-Prom luciferase reporter, overnight, CREF/GAPDH counter-screens. A general note: Reporter assays use an easily measured gene product as a stand-in for the process of interest.
Experiment in test [2]: as above
The following applies: CREF/GAPDH counter-screens; GAPDH; mean of runs. A general note: Counterscreens check selectivity or assay interference.

Test [3] deals with PEG-3 (UniProt Q6IN02). The test is described as above. The following applies: HeLa PEG-Prom luciferase reporter, overnight, CREF/GAPDH counter-screens, mean of runs.
PEG-3 (UniProt Q6IN02), sequence (Q6IN02 whole entry, looked up): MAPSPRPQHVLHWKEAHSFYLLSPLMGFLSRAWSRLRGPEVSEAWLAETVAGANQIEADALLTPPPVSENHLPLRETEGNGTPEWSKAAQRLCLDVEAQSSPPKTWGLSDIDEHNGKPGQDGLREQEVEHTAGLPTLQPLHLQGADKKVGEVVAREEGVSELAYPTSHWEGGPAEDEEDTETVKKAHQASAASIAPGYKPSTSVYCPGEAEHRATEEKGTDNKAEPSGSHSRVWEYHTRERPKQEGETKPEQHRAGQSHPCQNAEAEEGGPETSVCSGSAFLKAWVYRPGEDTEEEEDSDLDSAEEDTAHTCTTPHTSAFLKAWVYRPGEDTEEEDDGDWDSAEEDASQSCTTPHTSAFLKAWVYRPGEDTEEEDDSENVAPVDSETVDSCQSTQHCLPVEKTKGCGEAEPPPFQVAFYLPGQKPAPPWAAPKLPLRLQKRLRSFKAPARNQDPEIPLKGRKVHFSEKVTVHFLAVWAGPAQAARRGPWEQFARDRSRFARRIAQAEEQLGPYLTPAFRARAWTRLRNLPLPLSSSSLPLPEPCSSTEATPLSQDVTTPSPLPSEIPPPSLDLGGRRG
The mark [4] stands for this setting: run 1, dose range 1, individual replicate IC50 per panel.
The mark [5] stands for this setting: run 2, dose range 1, individual replicate IC50 per panel.

As for `O=C(Nc1ccccc1)c1nc[nH]c1C(=O)NCCCCCCNC(=O)c1[nH]cnc1C(=O)Nc1ccccc1`, the IC50 – broadly, the concentration at which inhibition is half-maximal – in the test on GAPDH (setting [4]) was more than 100 µM; with GAPDH (setting [5]), 16 µM; in the test on Rat fibroblasts (CREF) (mean of runs) it was > 100 µM (inactive); in the test with Rat fibroblasts (CREF) (setting [4]) it was more than 100 µM; in the test with Rat fibroblasts (CREF) (setting [5]), more than 100 µM; with PEG-3 [1] (setting [4]) it was 2.4 µM. Also, the IC50 in the test on PEG-3 [1] (setting [5]) is more than 100 µM. Also, the IC50 result (in test [2]; on PEG-3 [3]) was “inactive” in each case.
For the molecule `CC1=NOC(=O)/C1=C\c1ccc(-c2ccccc2Br)o1`, the IC50 in the test on GAPDH (setting [4]) is 16.9 µM; with GAPDH (setting [5]) it was 19.7 µM; in the test on Rat fibroblasts (CREF) (mean of runs), 50 µM; in the test on Rat fibroblasts (CREF) (setting [4]), 24.6 µM; with Rat fibroblasts (CREF) (setting [5]), 75.3 µM; in the test on PEG-3 [1] (setting [4]) it was 11.3 µM. The IC50 with PEG-3 [1] (setting [5]) was 10.1 µM; in test [2], 18.3 µM; at PEG-3 [3] it was 10.7 µM.
`CN(C)c1c([N+](=O)[O-])cc(N2C(=O)C=CC2=O)cc1[N+](=O)[O-]`: the half-inhibitory concentration (IC50) in the test with GAPDH (setting [4]) was 24.6 µM; with GAPDH (setting [5]), 22.7 µM; in the test on Rat fibroblasts (CREF) (mean of runs) it was 14 µM; in the test on Rat fibroblasts (CREF) (setting [4]) it was 10.7 µM; in the test on Rat fibroblasts (CREF) (setting [5]), 17.3 µM; in the test with PEG-3 [1] (setting [4]), 7.49 µM. The IC50 is 5.58 µM in the test on PEG-3 [1] (setting [5]), 23.6 µM in test [2] and 6.53 µM at PEG-3 [3].
Regarding `NS(=O)(=O)c1ccc(CCNc2nn3c(-c4ccc(F)c(Cl)c4)cnc3s2)cc1`, the IC50 was 12.9 µM in the test with GAPDH (setting [4]); 15.3 µM with GAPDH (setting [5]); > 100 µM (inactive) with Rat fibroblasts (CREF) (mean of runs); more than 100 µM in the test with Rat fibroblasts (CREF) (setting [4]); more than 100 µM with Rat fibroblasts (CREF) (setting [5]); 2.86 µM with PEG-3 [1] (setting [4]). The IC50 was 2.47 µM with PEG-3 [1] (setting [5]), 14.1 µM in test [2] and 2.67 µM on PEG-3 [3].
As for `CN(C)CC1CCC/C(=C\c2ccc(OC(=O)c3ccc(Cl)cc3)cc2)C1=O` (centres undefined), the IC50 is 49.8 µM in the test with GAPDH (setting [4]); 57.7 µM with GAPDH (setting [5]); > 100 µM (inactive) in the test on Rat fibroblasts (CREF) (mean of runs); more than 100 µM with Rat fibroblasts (CREF) (setting [4]); more than 100 µM in the test on Rat fibroblasts (CREF) (setting [5]); 6.76 µM in the test on PEG-3 [1] (setting [4]). The values for the IC50 in the test with PEG-3 [1] (setting [5]) and at PEG-3 [3] were 4.86 µM and 5.81 µM, respectively. Also, the IC50 result in test [2] is “inactive”.
Consider `CC(C)CCCCCCCCCCCCC(=O)NCC(=O)NC1C(O)C(O)C(Nc2ncnc3nc[nH]c23)OC1C(O)CO` (centres undefined), for which the IC50 in the test on GAPDH (setting [4]) was less than 0.2 µM; with GAPDH (setting [5]), less than 0.2 µM; in the test with Rat fibroblasts (CREF) (mean of runs) it was 50.1 µM (inactive); with Rat fibroblasts (CREF) (setting [4]), less than 0.2 µM; in the test with Rat fibroblasts (CREF) (setting [5]), more than 100 µM; in the test on PEG-3 [1] (setting [4]) it was 3.44 µM. The results for the IC50 (with PEG-3 [1] (setting [5]); in test [2]; on PEG-3 [3]) were less than 0.2 µM, less than 0.2 µM and 1.82 µM, respectively.
On to `CC1CC(C)C(=O)C(C(CC2CC(=O)NC(=O)C2)OC(=O)CC(=O)c2ccccc2)C1` (centres undefined), for which the IC50 in the test with GAPDH (setting [4]) was 0.605 µM; in the test on GAPDH (setting [5]), 1.42 µM; in the test with Rat fibroblasts (CREF) (mean of runs), > 100 µM (inactive); in the test on Rat fibroblasts (CREF) (setting [4]), more than 100 µM; with Rat fibroblasts (CREF) (setting [5]) it was more than 100 µM; with PEG-3 [1] (setting [4]), 1.78 µM. Besides, the IC50 was 0.549 µM in the test with PEG-3 [1] (setting [5]), 1.01 µM in test [2] and 1.16 µM at PEG-3 [3].
As to `O=C(CCl)N1c2ccccc2Sc2ccc3ccccc3c21`, the IC50 with GAPDH (setting [4]) was 26.7 µM; with GAPDH (setting [5]) it was 23.4 µM; in the test with Rat fibroblasts (CREF) (mean of runs), 26.3 µM; in the test with Rat fibroblasts (CREF) (setting [4]) it was 24.5 µM; with Rat fibroblasts (CREF) (setting [5]) it was 28.1 µM; in the test with PEG-3 [1] (setting [4]), 12.2 µM. The IC50 is 5.18 µM in the test with PEG-3 [1] (setting [5]), 25.1 µM in test [2] and 8.68 µM on PEG-3 [3].
Turning to `CCc1ccc(/C=C2\SC(=S)N(CCCC(=O)NC3=NCCS3)C2=O)cc1`, the IC50 in the test with GAPDH (setting [4]) was 4.61 µM; in the test with GAPDH (setting [5]), 4.45 µM; with Rat fibroblasts (CREF) (mean of runs), > 100 µM (inactive); with Rat fibroblasts (CREF) (setting [4]) it was more than 100 µM; in the test on Rat fibroblasts (CREF) (setting [5]), more than 100 µM; with PEG-3 [1] (setting [4]), 1.28 µM. Moreover, the IC50 in the test on PEG-3 [1] (setting [5]) is 1.14 µM; in test [2] it was 4.53 µM; on PEG-3 [3], 1.21 µM.
Regarding `Cc1cc(C)c(C)c(S(=O)(=O)N2CCN(C(=O)c3cc(=O)[nH]c4ccccc34)CC2)c1C`, the IC50 in the test with GAPDH (setting [4]) was 24.9 µM; in the test with GAPDH (setting [5]), 36.8 µM; in the test on Rat fibroblasts (CREF) (mean of runs) it was 55.2 µM (inactive); in the test on Rat fibroblasts (CREF) (setting [4]), more than 100 µM; with Rat fibroblasts (CREF) (setting [5]), 10.3 µM; with PEG-3 [1] (setting [4]) it was 13.6 µM. Also, the IC50 in the test with PEG-3 [1] (setting [5]) was 5.06 µM; at PEG-3 [3] it was 9.32 µM. Also, in test [2], the IC50 entry is “inactive”.
On to `Cc1ccc(NC(=S)NC(=O)c2ccc(F)cc2)cc1S(=O)(=O)Nc1ccccc1Cl`, for which the IC50 was 44.2 µM with GAPDH (setting [4]); 41 µM with GAPDH (setting [5]); 50.7 µM (inactive) in the test with Rat fibroblasts (CREF) (mean of runs); more than 100 µM with Rat fibroblasts (CREF) (setting [4]); 1.35 µM in the test with Rat fibroblasts (CREF) (setting [5]); 4.15 µM with PEG-3 [1] (setting [4]). For the same molecule, the IC50 in the test on PEG-3 [1] (setting [5]) was 3.56 µM; on PEG-3 [3], 3.86 µM. Moreover, the IC50 result in test [2] was “inactive”.

Source of the values: PubChem BioAssay AID624167 (Sanford-Burnham Center for Chemical Genomics, 2012).
